system: Rattus norvegicus; experiment: Local anaesthetic activity in Rattus norvegicus Wistar (rat) sciatic nerve block model assessed as time duration of loss of motor activity at 1 % solution measured over 45 min post injection; type: functional

SMILES | Time [min]
CCN(CC)CC(=O)Nc1nc(-c2ccc(F)cc2Cl)cs1 | 25
CCN(CC)CC(=O)Nc1nnc(Cc2ccc(OC)cc2)s1 | 77
CCN(CC)CC(=O)Nc1nnc(Cc2ccc(F)cc2)s1 | 90
O=C(CN1CCCCC1)Nc1nc(-c2ccc(F)cc2Cl)cs1 | 40
COc1ccc(Cc2nnc(NC(=O)CN3CCCCC3)s2)cc1 | 35
O=C(CN1CCCCC1)Nc1nnc(Cc2ccc(F)cc2)s1 | 40
O=C(CN1CCOCC1)Nc1nc(-c2ccc(F)cc2Cl)cs1 | 75
COc1ccc(Cc2nnc(NC(=O)CN3CCOCC3)s2)cc1 | 117
O=C(CN1CCOCC1)Nc1nnc(Cc2ccc(F)cc2)s1 | 25
CCN(CC)CC(=O)Nc1c(C)cccc1C.Cl | 65

system: Rattus norvegicus; experiment: Local anaesthetic activity in Rattus norvegicus Wistar (rat) sciatic nerve block model assessed as time duration of loss of motor activity at 2 % solution measured until first sign of motor activity

SMILES | Time [min]
CCN(CC)CC(=O)Nc1nc(-c2ccc(F)cc2Cl)cs1 | 45
CCN(CC)CC(=O)Nc1nnc(Cc2ccc(OC)cc2)s1 | 72
CCN(CC)CC(=O)Nc1nnc(Cc2ccc(F)cc2)s1 | 210
O=C(CN1CCCCC1)Nc1nc(-c2ccc(F)cc2Cl)cs1 | 160
COc1ccc(Cc2nnc(NC(=O)CN3CCCCC3)s2)cc1 | 160
O=C(CN1CCCCC1)Nc1nnc(Cc2ccc(F)cc2)s1 | 180
O=C(CN1CCOCC1)Nc1nc(-c2ccc(F)cc2Cl)cs1 | 150
COc1ccc(Cc2nnc(NC(=O)CN3CCOCC3)s2)cc1 | 63
O=C(CN1CCOCC1)Nc1nnc(Cc2ccc(F)cc2)s1 | 50
CCN(CC)CC(=O)Nc1c(C)cccc1C.Cl | 117

system: Oryctolagus cuniculus; experiment: Corneal anaesthetic activity in New Zealand Oryctolagus cuniculus (rabbit) assessed as inhibition of Frey's horse hair-induced blink reflex at 2 % solution relative to lidocaine; type: functional

SMILES | inhibition (INH) [%]
CCN(CC)CC(=O)Nc1nc(-c2ccc(F)cc2Cl)cs1 | 44.3
CCN(CC)CC(=O)Nc1nnc(Cc2ccc(OC)cc2)s1 | 54.2
CCN(CC)CC(=O)Nc1nnc(Cc2ccc(F)cc2)s1 | 88.3
O=C(CN1CCCCC1)Nc1nc(-c2ccc(F)cc2Cl)cs1 | 42.6
COc1ccc(Cc2nnc(NC(=O)CN3CCCCC3)s2)cc1 | 34.8
O=C(CN1CCCCC1)Nc1nnc(Cc2ccc(F)cc2)s1 | 92.6
O=C(CN1CCOCC1)Nc1nc(-c2ccc(F)cc2Cl)cs1 | 25.6
COc1ccc(Cc2nnc(NC(=O)CN3CCOCC3)s2)cc1 | 40.2
O=C(CN1CCOCC1)Nc1nnc(Cc2ccc(F)cc2)s1 | 72.1

system: Mus musculus; experiment: Local anaesthetic activity in sc dosed Mus musculus Swiss (mouse) tail assessed as loss of pain reflex measured with in 30 secs; type: functional, organism-based

IC50 [mM] | SMILES
36 | CCN(CC)CC(=O)Nc1nnc(Cc2ccc(OC)cc2)s1
17 | CCN(CC)CC(=O)Nc1nnc(Cc2ccc(F)cc2)s1
32 | O=C(CN1CCOCC1)Nc1nc(-c2ccc(F)cc2Cl)cs1

The remaining lines, values behind:

SMILES | IC50 [mM]
CCN(CC)CC(=O)Nc1nc(-c2ccc(F)cc2Cl)cs1 | 23
O=C(CN1CCCCC1)Nc1nc(-c2ccc(F)cc2Cl)cs1 | 7.2
COc1ccc(Cc2nnc(NC(=O)CN3CCCCC3)s2)cc1 | 24
O=C(CN1CCCCC1)Nc1nnc(Cc2ccc(F)cc2)s1 | 6.6
COc1ccc(Cc2nnc(NC(=O)CN3CCOCC3)s2)cc1 | 47
O=C(CN1CCOCC1)Nc1nnc(Cc2ccc(F)cc2)s1 | 12.3
CCN(CC)CC(=O)Nc1c(C)cccc1C.Cl | 9.2
